This is an account of results in PMC3682772 (MedChemComm, 2012).

As usually defined, the IC50 is the point on the concentration scale where inhibition reaches its midpoint. By GI50 is commonly meant the concentration that inhibits growth by half.

A short description of data set [1]: Solubility in water / D2O. Format: physicochemical.
In data set [2] the test system is tubulin. The following applies: read-out: Inhibition of tubulin polymerization IC50; ref [34]; cited from earlier work.
The test system of data set [3] is HUVECs capillary-like tubule network. Description: HUVEC endothelial tube disruption on Matrigel. Format: cell-based, human. The conditions noted are these: 2 h treatment of network pre-established over 16 h.
Data set [4] has as its system NCI-H460 non-small cell lung cancer cell line. The experiment in a line: Cytotoxicity, SRB assay, NCI-H460. The following applies: Homo sapiens, NCI-H460, read-out: GI50 SRB assay NCI-H460. On the technique in general: The SRB assay estimates cell density from bound dye.
Data set [5] deals with tubulin. Description: Inhibition of [3H]colchicine binding to tubulin. The following applies: inhibitor 5 µM; 1 µM tubulin, 5 µM [3H]colchicine.

On to `COc1ccc2c(c1N)CCCC=C2c1cc(OC)c(OC)c(OC)c1.Cl` [Compound 16], for which, in data set [1] (hydrochloride salt), the Solubility in water result is on record as “limited solubility in water”. For the same compound, in data set [1] (in approximately 1.0 mL of D2O (NMR study), clear solution took several days), the Amount completely dissolved entry is “approximately 3 mg”.

`COc1ccc(/C=C\c2cc(OC)c(OC)c(OC)c2)c(O)c1O` [CA1, Combretastatin A-1]: the IC50 in the data set with tubulin [2] is 1.9 µM.

`COc1ccc2c(c1N)CCCC=C2c1cc(OC)c(OC)c(OC)c1` [Compound 3]: the Tubule disruption result in data set [3] (0.10 µM) is “Tubule disruption and cell rounding was observed”; in data set [3] (1 µM), “greatly increased”. For the same compound, in data set [4], the GI50 was 0.00469 µM.

Turning to `COc1ccc(/C=C\c2cc(OC)c(OC)c(OC)c2)cc1O` [CA4, combretastatin A-4, reference compound], the Tubule disruption entry in data set [3] (0.01 µM) is recorded as “tubule disruption activity was detected”. In addition, in the data set with tubulin [5], the “Inhibition of Colchicine binding” value is reported as 100%.
